From patent publication US8313669B2, “Liquid-crystal display” (Merck Patent Gesellschaft mit Beschränkter Haftung, priority 2007, dated 2012)

Legend:
[1] = Solubility in nematic LC mixture LCT-06-441 (crystallisation on cooling); assay type: physicochemical; conditions: 5% by weight in LCT-06-441, stirred at 50° C. for ½ hour, then cooled to room temperature without stirring
Description: The solubility of compound (1) is compared with the solubility of the structurally analogous compound (A) known from the prior art (for example EP 1 498 468 A1), in which the polymerisable groups are linked in the para-position to the mesogenic group:
To this end, each compound is dissolved in the commercially available nematic LC mixture LCT-06-441 (Merck KGaA, Darmstadt) in a concentration of 5% by weight with stirring at 50° C. (½ hour) and then cooled to room temperature without stirring.

Compound | melting point | Solubility (crystallisation behaviour) [1]
C=CC(=O)Oc1cccc(-c2cccc(OC(=O)C=C)c2)c1 [(2), 3′-Acryloyloxybiphenyl-3-yl acrylate] | 48 °C | –
C=C(C)C(=O)Oc1ccc(-c2ccc(OC(=O)C(=C)C)cc2)cc1 [(A), reference compound] | – | Immediately crystallises out on cooling to RT

More lines, main results first:

melting point | Compound | Solubility (crystallisation behaviour) [1]
76 °C | C=C(C)C(=O)OCCCCc1cc(-c2ccc(OC(=O)C(=C)C)cc2)ccc1OC(=O)C(=C)C [(9), 4′-(2-Methylacryloyloxy)-3-[4-(2-methylacryloyloxy)butyl]biphenyl-4-yl 2-methylacrylate] | –
70 °C | C=C(C)C(=O)Oc1cccc(-c2cccc(OC(=O)C(=C)C)c2)c1 [(1), 3′-(2-Methylacryloyloxy)biphenyl-3-yl 2-methylacrylate] | Crystallises out overnight at RT
49 °C | C=C(C)C(=O)OCCCOc1cccc(-c2cccc(OC(=O)C(=C)C)c2)c1 [(3), 3′-[3-(2-Methylacryloyloxy)propoxy]biphenyl-3-yl 2-methylacrylate] | –
